Laboratory results as given in US7628984B2, “Micronutrient formulations for pulmonary and heart health” (Premier Micronutrient Corporation, priority 2005, dated 2009).
Where two headings read alike, the source gives them in different places.

Legend:
[1] = cited from earlier work
[2] = tested on: patients with idiopathic dilated cardiomyopathy; settings: Co-enzyme Q10 33.3 mg thrice/day, 126 patients, 6 y; cited from earlier work
adenylate cyclase = settings: cited from earlier work
[3] = Oral ingestion of α-TS, plasma levels; type: in vivo; settings: 800 IU/day, humans
Source text: Also, the oxidative DNA damage produced by oxidized vitamin C could be ameliorated by vitamin E. The form and type of vitamin E used are also important in any clinical trial. […] Selenium is a co-factor of glutathione perodidase, and Se-glutathione peroxidase also acts as an antioxidant. Therefore, selenium supplementation together with other antioxidants is also essential.

[4] = tested on: smokers with hypercholesterolemia; settings: 544 IU, 42 patients, 4 months; cited from earlier work
[5] = tested on: healthy male subjects receiving methionine; settings: Vit. C 2 g, methionine 100 mg/kg, 6 hours; cited from earlier work
[6] = tested on: intracellular levels of glutathione; settings: cited from earlier work
[7] = oral supplementation, human subjects; cited from earlier work
[8] = tested on: diabetes type 2 patients with or without macrovascular complications; settings: 1200 IU/day, 75 patients, 5 months; cited from earlier work
[9] = tested on: patients with angiographically proven coronary atherosclerosis; settings: cited from earlier work
[10] = tested on: patients with chronic renal failure; settings: 800 IU, 33 patients, 12 weeks, cited from earlier work
connexin gene = settings: mammalian cells in culture; cited from earlier work
chickens = settings: cited from earlier work
heavy smokers = settings: 800 IU daily, 10 heavy smokers, 3 weeks, cited from earlier work
rabbits = settings: cited from earlier work
[11] = tested on: patients with high risk for cardiac events; settings: Vitamin E 400 IU, 9,541 patients, follow-up 4.5 y, vs control, cited from earlier work
[12] = tested on: 39,910 male health professionals; settings: at least 100 IU per day for at least 2 years vs no vitamin E; cited from earlier work
[13] = tested on: 11,000 people of age 67 or over; settings: follow up 6 years; cited from earlier work
[14] = tested on: men (high risk patients with prior cardiac events); settings: 50 mg/day, 1862 men, 6 y, vs placebo, cited from earlier work
male monkeys = settings: vs unsupplemented atherosclerotic-promoting diet; cited from earlier work
[15] = tested on: patients having coronary angioplasty; settings: cited from earlier work
[16] = tested on: patients undergoing angioplasty; settings: 317 patients, 4 weeks before and 6 months after angioplasty, vs placebo, cited from earlier work
[17] = 400 or 800 IU per day, median follow-up 510 days

For `COC1=C(OC)C(=O)C(C/C=C(\C)CC/C=C(\C)CC/C=C(\C)CC/C=C(\C)CC/C=C(\C)CC/C=C(\C)CC/C=C(\C)CC/C=C(\C)CC/C=C(\C)CCC=C(C)C)=C(C)C1=O` [Coenzyme Q10], the “doses with no known toxicity in humans” value ([1]; in vivo) is listed as “up to 300 mg/d” and the Cardiac muscle function [2] is listed as “useful in improving”.

In the case of `Cc1c(C)c2c(c(C)c1OC(=O)CCC(=O)O)CC[C@@](C)(CCC[C@H](C)CCC[C@H](C)CCCC(C)C)O2` [α-TS, α-tocopherol-succinate], the “action of PGE2 on adenylate cyclase” value (adenylate cyclase) is listed as “reduce” and the “plasma levels of α-tocopherol and α-TS” value [3] is listed as “increased”.

In the case of `CC(=O)Oc1c(C)c(C)c2c(c1C)CCC(C)(CCC[C@H](C)CCC[C@H](C)CCCC(C)C)O2` (stereo partly drawn) [Vitamin E(α-TA), alpha tocopheryl acetate], the “FMD (endothelial-dependent flow-mediated dilation)” value [4] is listed as “improved”.

For `O=C1O[C@H]([C@@H](O)CO)C(O)=C1O` [Vit. C, ascorbic acid], the “Plasma homocysteine, arterial stiffness” value [5] is given as “reduced”.

In the case of `CC(=O)N[C@@H](CS)C(=O)O` [N-acetylcysteine], the “intracellular levels of glutathione” value [6] is listed as “increase” and the “doses that can cause trace metal deficiencies” value ([1]; in vivo) is listed as ≥ 1000 mg/day.

For `N[C@@H](CCC(=O)N[C@@H](CS)C(=O)NCC(=O)O)C(=O)O` [glutathione], the “plasma levels of glutathione” value [7] is given as “failed to significantly increase”.

For `Cc1c(C)c2c(c(C)c1O)CC[C@@](C)(CCC[C@H](C)CCC[C@H](C)CCCC(C)C)O2` [Vitamin E (d-αT), d-alpha tocopherol], the “C-reactive protein (and monocyte interleukin-6)” value [8] is given as “lowered”, the “Death, non-fatal MI” value ([9]; 400 or 800 IU, 2,002 patients, follow-up 510 d) is given as “reduced” and the LDL oxidation ([10]; listed as Vit. E (d-αT)) is given as “reduced”. For the same compound, the LDL oxidation ([10]; listed as α-tocopherol) was “decreased”.

In the case of vitamin A, the “toxicity after prolonged consumption in adults” value ([1]; daily doses higher than twice the RDA) is given as “liver and skin toxicity” and the “expression of the connexin gene” value (connexin gene) is given as “does not produce such an effect”.

In the case of Vitamin E, the “development of early aortic atherosclerotic lesions” value (chickens) is listed as “reduce”, the “Oxidative stress (levels of oxidative stress markers)” value (heavy smokers) is listed as “increases” and the “Oxidative stress (levels of oxidative stress markers)” value (heavy smokers; listed as vitamin E) is listed as “increased”. For the same compound, the “C-reactive protein (and monocyte interleukin-6)” value [8] was “reduced”, the “increase in cardiovascular death” value [9, 17] was 18% and the “lower risk of non-fatal myocardial infarction than the placebo group” value [9, 17] was 77%. For the same compound, the “development of early aortic atherosclerotic lesions” value (rabbits) was “reduce”, the “Death, stroke, non-fatal MI” value [11] was “no effect” and the “Death, stroke, non-fatal MI” value ([11]; listed as vitamin E) was “did not reduce”. The “lower risk of CAD” value [12] was 37%, the “doses used for short-term clinical studies without adverse effects” value ([1]; in vivo) was “up to 2,000 IU/d” and the “reduction in mortality from CAD” value [13] was 47%. For the same compound, the “FMD (endothelial-dependent flow-mediated dilation)” value [4] was “improved”, the “Death, CAD events” value [14] was “no effect” and the “Death, CAD events” value ([14]; listed as vitamin E) was “no significant difference”. For the same compound, the stenosis progression (male monkeys) was “decreased”, the “restenosis, % of patients” value ([15]; 1200 IU daily for 4 months, placebo 50%) was 34.6% and the Stenosis ([15]; 1200 IU, 100 patients, 4 months) was “reduced”.

In the case of `CC1=C(/C=C/C(C)=C/C=C/C(C)=C/C=C/C=C(C)/C=C/C=C(C)/C=C/C2=C(C)CCCC2(C)C)C(C)(C)CCC1` [BC, β-carotene], the “doses that can cause yellowing of skin and pigment deposits in the eye” value ([1]; reversible upon discontinuation) is given as ≥ 100 mg/day and the “expression of the connexin gene” value (connexin gene) is given as “enhances”.

For `O=C(O)CCCCC1CCSS1` (stereo not drawn) [α-lipoic acid], the “intracellular levels of glutathione” value [6] is listed as “increase”.

For `CC(C)(Sc1cc(C(C)(C)C)c(O)c(C(C)(C)C)c1)Sc1cc(C(C)(C)C)c(O)c(C(C)(C)C)c1` [Probucol], the Restenosis [16] is given as “probucol reduced” and the Restenosis ([16]; listed as probucol) is given as “effective in reducing”.
